Values of other authors as cited in patent US9238007B2, “Method for the production of a medicament containing tadalafil” (RATIOPHARM GMBH, priority 2007, dated 2016).

Conditions: according to WO 01/08687

solubility in water: about 2 μg/ml
SMILES: CN1CC(=O)N2[C@H](c3ccc4c(c3)OCO4)c3[nH]c4ccccc4c3C[C@@H]2C1=O [Tadalafil, (6R,12aR)-6-(1,3-benzodioxol-5-yl)-2-methyl-1,2,3,4,6,7,12,12a-octahydropyrazino [2,1 :6,1]pyrido[3,4-b]indole-1,4-dione]
